In general, IC50 refers to the concentration that gives 50% inhibition.

This note sets out measurements from patent publication US20260138976A1 (Hoffmann-La Roche Inc., priority 2022, published 2026).

In test [1] the target is T1, DGKα (hDGKalpha(1-735)-N-His) (Homo sapiens, UniProt P23743).
T1 construct: hDGKalpha(1-735)-N-His; His (N); made in house; host or cells: Sf21 insect cells (baculovirus)
Briefly: In vitro DGK inhibition assay, DGKalpha ADP Glo (in house). Type of test: biochemical. To be noted: 4 nM DGKα, 25 μM ATP, 125 uM DLG in liposomes, 1 hour reaction. The gist of the method:
(§1)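 ADP-Glo luminescence measured ADP formed over 1 h by Sf21-expressed full-length human enzymes: DGKα at 4 nM with 25 µM ATP, DGKζ at 2 nM with 50 µM ATP, both on 125 µM DLG in PS/PC liposomes. Dose–response used 11 threefold dilutions at 2% final DMSO.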
Background: In ADP-Glo the light output rises with the ADP produced.

Test [2] has as its target T2, DGKζ (hDGKzeta(1-928)-N-His) (Homo sapiens, UniProt Q13574).
T2 construct: hDGKzeta(1-928)-N-His; His (N); made in house; host or cells: Sf21 insect cells (baculovirus)
Briefly: In vitro DGK inhibition assay, DGKzeta ADP Glo (in house). Type of test: biochemical. To be noted: 2 nM DGKζ, 50 μM ATP, 125 uM DLG in liposomes, 1 hour reaction. The method, boiled down:
as §1

A value given as a limit tells only on which side of the number the result lay.

T1 sequence (P23743 whole entry): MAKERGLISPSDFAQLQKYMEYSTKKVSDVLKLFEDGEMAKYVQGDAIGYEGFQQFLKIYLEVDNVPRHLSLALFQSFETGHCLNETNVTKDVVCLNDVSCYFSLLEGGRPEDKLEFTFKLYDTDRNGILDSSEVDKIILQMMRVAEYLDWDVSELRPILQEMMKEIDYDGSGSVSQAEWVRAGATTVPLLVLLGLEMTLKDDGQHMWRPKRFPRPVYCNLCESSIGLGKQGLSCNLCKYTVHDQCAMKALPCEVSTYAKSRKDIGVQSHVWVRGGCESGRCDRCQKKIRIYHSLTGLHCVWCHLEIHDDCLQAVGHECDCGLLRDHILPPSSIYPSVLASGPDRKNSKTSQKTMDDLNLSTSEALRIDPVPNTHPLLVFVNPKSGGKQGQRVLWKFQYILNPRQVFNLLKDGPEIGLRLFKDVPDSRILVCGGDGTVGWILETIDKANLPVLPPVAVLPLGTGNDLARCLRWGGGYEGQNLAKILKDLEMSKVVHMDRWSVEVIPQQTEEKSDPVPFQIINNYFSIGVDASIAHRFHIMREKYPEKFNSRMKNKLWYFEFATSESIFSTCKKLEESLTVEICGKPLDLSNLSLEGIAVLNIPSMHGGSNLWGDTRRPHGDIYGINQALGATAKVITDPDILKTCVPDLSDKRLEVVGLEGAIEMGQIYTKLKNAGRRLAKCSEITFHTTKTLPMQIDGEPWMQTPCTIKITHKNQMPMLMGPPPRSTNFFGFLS
T2 sequence (Q13574 whole entry): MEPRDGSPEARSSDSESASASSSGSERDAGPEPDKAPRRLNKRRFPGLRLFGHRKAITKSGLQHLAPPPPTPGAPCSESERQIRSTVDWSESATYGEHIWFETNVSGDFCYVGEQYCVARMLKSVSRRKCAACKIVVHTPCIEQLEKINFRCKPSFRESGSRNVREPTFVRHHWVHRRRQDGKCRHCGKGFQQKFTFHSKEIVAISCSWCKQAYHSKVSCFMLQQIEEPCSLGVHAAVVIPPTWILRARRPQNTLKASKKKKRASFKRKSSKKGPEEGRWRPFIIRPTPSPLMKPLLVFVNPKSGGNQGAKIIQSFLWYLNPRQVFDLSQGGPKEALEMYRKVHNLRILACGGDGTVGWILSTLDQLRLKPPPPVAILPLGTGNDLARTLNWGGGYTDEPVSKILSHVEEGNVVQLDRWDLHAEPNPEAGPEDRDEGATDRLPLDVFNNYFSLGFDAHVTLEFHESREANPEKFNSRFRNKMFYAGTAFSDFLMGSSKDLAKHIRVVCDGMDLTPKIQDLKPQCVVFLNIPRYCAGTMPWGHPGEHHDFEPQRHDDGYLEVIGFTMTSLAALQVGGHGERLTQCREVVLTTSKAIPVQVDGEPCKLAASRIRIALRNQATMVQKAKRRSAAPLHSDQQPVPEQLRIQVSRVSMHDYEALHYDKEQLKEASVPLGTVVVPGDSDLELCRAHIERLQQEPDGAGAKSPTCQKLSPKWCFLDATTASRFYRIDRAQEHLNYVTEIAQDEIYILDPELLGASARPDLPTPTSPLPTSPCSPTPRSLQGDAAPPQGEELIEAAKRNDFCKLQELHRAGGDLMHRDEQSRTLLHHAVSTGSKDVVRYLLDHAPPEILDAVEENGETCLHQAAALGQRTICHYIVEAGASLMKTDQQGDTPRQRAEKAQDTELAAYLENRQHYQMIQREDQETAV

For `CC(C)(C#N)c1nnc(-c2ccc3c(c2)N(Cc2ccc(-c4noc(C(F)(F)F)n4)cc2)C(=O)[C@@H](N)CS3(=O)=O)o1` [Example 38, 2-[5-[(3R)-3-amino-1,1,4-trioxo-5-[[4-[5-(trifluoromethyl)-1,2,4-oxadiazol-3-yl]phenyl]methyl]-2,3-dihydro-1λ^6,5-benzothiazepin-7-yl]-1,3,4-oxadiazol-2-yl]-2-methyl-propanenitrile], the IC50 came out at 9770 nM in test [1] and 1140 nM in test [2].

With `N[C@H]1CS(=O)(=O)c2ccc(-c3nnc(C4(N)CCCCC4)o3)cc2N(Cc2ccc(-c3ccc(C(F)(F)F)cn3)cc2)C1=O` [Example 41, (3R)-3-amino-7-[5-(1-aminocyclohexyl)-1,3,4-oxadiazol-2-yl]-1,1-dioxo-5-[[4-[5-(trifluoromethyl)-2-pyridyl]phenyl]methyl]-2,3-dihydro-1λ^6,5-benzothiazepin-4-one], the IC50 in test [1] turned out to be 30600 nM; in test [2], 3240 nM.

Regarding `N[C@H]1CS(=O)(=O)c2ccc(-c3nnc(C4(N)CCCCC4)o3)cc2N(Cc2ccc(-c3ccc(C(F)(F)F)cc3)cc2)C1=O` [Example 42, (3R)-3-amino-7-[5-(1-aminocyclohexyl)-1,3,4-oxadiazol-2-yl]-1,1-dioxo-5-[[4-[4-(trifluoromethyl)phenyl]phenyl]methyl]-2,3-dihydro-1λ^6,5-benzothiazepin-4-one], the figures for the IC50 in test [1] and in test [2] were 30400 nM and 8120 nM, respectively.

Take `COc1ccc(-c2ccc(CN3C(=O)[C@@H](N)CS(=O)(=O)c4ccc(-c5nnc(C6(N)CCCCC6)o5)cc43)cc2)cc1` [Example 43, (3R)-3-amino-7-[5-(1-aminocyclohexyl)-1,3,4-oxadiazol-2-yl]-5-[[4-(4-methoxyphenyl)phenyl]methyl]-1,1-dioxo-2,3-dihydro-1λ^6,5-benzothiazepin-4-one]: the IC50 in test [1] was 17100 nM; in test [2] it was 1090 nM.

In the case of `COc1ccc(-c2ccc(CN3C(=O)[C@@H](N)CS(=O)(=O)c4ccc(-c5nnc(C6(F)CCCN(C)C6)o5)cc43)cc2)cc1` (stereo partly drawn) [Example 50, (3R)-3-amino-7-[5-(3-fluoro-1-methyl-3-piperidyl)-1,3,4-oxadiazol-2-yl]-5-[[4-(4-methoxyphenyl)phenyl]methyl]-1,1-dioxo-2,3-dihydro-1λ^6,5-benzothiazepin-4-one], the IC50 in test [1] was found to be 3380 nM; in test [2], 851 nM.

On to `CN1CCCC(F)(c2nnc(-c3ccc4c(c3)N(Cc3ccc(-c5ccc(C(F)(F)F)cn5)cc3)C(=O)[C@@H](N)CS4(=O)=O)o2)C1` (stereo partly drawn) [Example 51, (3R)-3-amino-7-[5-(3-fluoro-1-methyl-3-piperidyl)-1,3,4-oxadiazol-2-yl]-1,1-dioxo-5-[[4-[5-(trifluoromethyl)-2-pyridyl]phenyl]methyl]-2,3-dihydro-1λ^6,5-benzothiazepin-4-one], for which the IC50 stood at 6260 nM in test [1] and 1800 nM in test [2].

As to `COC(=O)N1CC(c2nnc(-c3ccc4c(c3)N(Cc3ccc(-c5noc(C(C)(C)C)n5)cc3)C(=O)[C@@H](N)CS4(=O)=O)o2)CC(F)(F)C1` (stereo partly drawn) [Example 56, methyl 3,3-difluoro-5-[5-[(3R)-3-amino-5-[[4-(5-tert-butyl-1,2,4-oxadiazol-3-yl)phenyl]methyl]-1,1,4-trioxo-2,3-dihydro-1λ^6,5-benzothiazepin-7-yl]-1,3,4-oxadiazol-2-yl]piperidine-1-carboxylate], the IC50 in test [1] stood at 1990 nM; in test [2] it was 228 nM.

On to `COC(=O)N1CC(c2nnc(-c3ccc4c(c3)N(Cc3ccc(-c5ccc(C(F)(F)F)cc5)nc3)C(=O)[C@@H](N)CS4(=O)=O)o2)CC(F)(F)C1` (stereo partly drawn) [Example 57, methyl 3,3-difluoro-5-[5-[(3R)-3-amino-1,1,4-trioxo-5-[[6-[4-(trifluoromethyl)phenyl]-3-pyridyl]methyl]-2,3-dihydro-1λ^6,5-benzothiazepin-7-yl]-1,3,4-oxadiazol-2-yl]piperidine-1-carboxylate], for which the IC50 amounted to 3340 nM in test [1] and 2340 nM in test [2].

In the case of `COC(=O)N1CC2CC(c3nnc(-c4ccc5c(c4)N(Cc4ccc(-c6ccc(C(F)(F)F)cc6)nc4)C(=O)[C@@H](N)CS5(=O)=O)o3)(C2)C1` [Example 58, methyl 1-[5-[(3R)-3-amino-1,1,4-trioxo-5-[[6-[4-(trifluoromethyl)phenyl]-3-pyridyl]methyl]-2,3-dihydro-1λ^6,5-benzothiazepin-7-yl]-1,3,4-oxadiazol-2-yl]-3-azabicyclo[3.1.1]heptane-3-carboxylate], the values for the IC50 in test [1] and in test [2] were 26400 nM and 2140 nM, respectively.

In the case of `N#CC1(c2nnc(-c3ccc4c(c3)N(Cc3ccc(-c5ccc(C(F)(F)F)cn5)cc3)C(=O)[C@@H](N)CS4(=O)=O)o2)CC1` [Example 62, 1-[5-[(3R)-3-amino-1,1,4-trioxo-5-[[4-[5-(trifluoromethyl)-2-pyridyl]phenyl]methyl]-2,3-dihydro-1λ^6,5-benzothiazepin-7-yl]-1,3,4-oxadiazol-2-yl]cyclopropane-carbonitrile], the IC50 was > 19800 nM in test [1] and 1500 nM in test [2].

As for `CCOC(F)(c1nnc(-c2ccc3c(c2)N(Cc2ccc(-c4noc(C(F)(F)F)n4)cc2)C(=O)[C@@H](N)CS3(=O)=O)o1)C(F)(F)F` (stereo partly drawn) [Example 64, (3R)-3-amino-7-[5-(1-ethoxy-1,2,2,2-tetrafluoro-ethyl)-1,3,4-oxadiazol-2-yl]-1,1-dioxo-5-[[4-[5-(trifluoromethyl)-1,2,4-oxadiazol-3-yl]phenyl]methyl]-2,3-dihydro-1λ^6,5-benzothiazepin-4-one], the IC50 in test [1] was determined as 1960 nM; in test [2], 2790 nM.

Consider `N[C@H]1CS(=O)(=O)c2ccc(-c3nnc(N4CCC(F)(F)CC4)o3)cc2N(Cc2ccc(-c3noc(C(F)(F)F)n3)cc2)C1=O` [Example 68, (3R)-3-amino-7-[5-(4,4-difluoro-1-piperidyl)-1,3,4-oxadiazol-2-yl]-1,1-dioxo-5-[[4-[5-(trifluoromethyl)-1,2,4-oxadiazol-3-yl]phenyl]methyl]-2,3-dihydro-1λ^6,5-benzothiazepin-4-one], for which the results for the IC50 in test [1] and in test [2] were 2640 nM and 625 nM, respectively.

Turning to `CC(C)(C)c1nnc(-c2ccc3c(c2)N(Cc2ccc(-n4nnc(C(F)(F)F)n4)cc2)C(=O)[C@@H](N)CS3(=O)=O)o1` [Example 90, (3R)-3-amino-7-(5-tert-butyl-1,3,4-oxadiazol-2-yl)-1,1-dioxo-5-[[4-[5-(trifluoromethyl)tetrazol-2-yl]phenyl]methyl]-2,3-dihydro-1λ^6,5-benzothiazepin-4-one], the IC50 in test [1] amounted to 23900 nM; in test [2] it was 2140 nM.

Take `CC(C)(C)c1nnc(-c2ccc3c(c2)N(Cc2ccc(-c4ncc(C(F)(F)F)o4)cc2)C(=O)[C@@H](N)CS3(=O)=O)o1` [Example 93, (3R)-3-amino-7-(5-tert-butyl-1,3,4-oxadiazol-2-yl)-1,1-dioxo-5-[[4-[5-(trifluoromethyl)oxazol-2-yl]phenyl]methyl]-2,3-dihydro-1λ^6,5-benzothiazepin-4-one]: the IC50 was 884 nM in test [1] and 485 nM in test [2].

On to `NC(c1nnc(-c2ccc3c(c2)N(Cc2ccc(-c4noc(C(F)(F)F)n4)cc2)C(=O)[C@@H](N)CS3(=O)=O)o1)C(F)(F)F` (stereo partly drawn) [Example 94], for which the IC50 in test [1] is > 60000 nM; in test [2], 9190 nM.

Turning to `CCC(O)(c1nnc(-c2ccc3c(c2)N(Cc2ccc(-c4noc(C(F)(F)F)n4)cc2)C(=O)[C@@H](N)CS3(=O)=O)o1)C(F)(F)F` (stereo partly drawn) [Example 95], the IC50 in test [1] was found to be 19000 nM; in test [2], 2420 nM.

Take `CC(C)(C#N)c1nnc(-c2ccc3c(c2)N(Cc2ccc(-c4cnc(C(F)(F)F)nc4)cc2)C(=O)[C@@H](N)CS3(=O)=O)o1` [Example 100]: the IC50 is > 62500 nM in test [1] and 1460 nM in test [2].

As to `CC(C)(C#N)c1nnc(-c2ccc3c(c2)N(Cc2ccc(-c4noc(C5CCC(F)(F)CC5)n4)cc2)C(=O)[C@@H](N)CS3(=O)=O)o1` [Example 101, 2-[5-[(3R)-3-amino-5-[[4-[5-(4,4-difluorocyclohexyl)-1,2,4-oxadiazol-3-yl]phenyl]methyl]-1,1,4-trioxo-2,3-dihydro-1λ^6,5-benzothiazepin-7-yl]-1,3,4-oxadiazol-2-yl]-2-methyl-propanenitrile], the results for the IC50 in test [1] and in test [2] were 25600 nM and 192 nM, respectively.

As to `CC(C)(C#N)c1nnc(-c2ccc3c(c2)N(Cc2ccc(-n4cc(C(F)(F)F)cn4)cc2)C(=O)[C@@H](N)CS3(=O)=O)o1` [Example 102, 2-[5-[(3R)-3-amino-1,1,4-trioxo-5-[[4-[4-(trifluoromethyl)pyrazol-1-yl]phenyl]methyl]-2,3-dihydro-1λ^6,5-benzothiazepin-7-yl]-1,3,4-oxadiazol-2-yl]-2-methyl-propanenitrile], the IC50 in test [1] is 1120 nM; in test [2] it was 747 nM.

On to `CC(C)(C#N)c1nnc(-c2ccc3c(c2)N(Cc2ccc(-c4ncc(C(F)(F)F)o4)cc2)C(=O)[C@@H](N)CS3(=O)=O)o1` [Example 105, 2-[5-[(3R)-3-amino-1,1,4-trioxo-5-[[4-[5-(trifluoromethyl)oxazol-2-yl]phenyl]methyl]-2,3-dihydro-1λ^6,5-benzothiazepin-7-yl]-1,3,4-oxadiazol-2-yl]-2-methyl-propanenitrile], for which the half-inhibitory concentration (IC50) in test [1] was 694 nM; in test [2], 787 nM.

Regarding `CC(C)(C#N)c1nnc(-c2ccc3c(c2)N(Cc2ccc(-c4ccc(C(F)(F)F)cc4)nc2)C(=O)[C@@H](N)CS3(=O)=O)o1` [Example 106], the IC50 in test [1] was 14400 nM; in test [2], 2370 nM.
